US20230201217A1 (priority 2019, published 2023)
pIC50: −log10 of the molar value. “And” between values parts separate entries of the source, which are not always exact repeats. Equal values may be shown once. Read-outs that look alike come from different tables or passages of the source.

Tests used:
[1] = tested on: isolated rabbit Purkinje fibers; assay: Action potential duration in rabbit cardiac Purkinje fibers; conditions: 50 μM, positive control
Protocol: The in vitro effect of 18-MC on the cardiac action potential was evaluated in isolated rabbit Purkinje fibers (FIG. 13). […] Fibers with resting potentials more negative than −80 mV and normal action potential morphology (APD90≥150 ms) were used in the study. Fibers were stimulated continuously at BCL of 1 second for at least 5 minutes. At the end of this period, baseline control APD rate dependence was measured using stimulus pulse trains consisting of approximately 50 pulses at BCL of 1 and 0.5 seconds. After returning to BCL of 1 second, 18-MC (or dl-sotalol) at the lowest concentration was applied for at least 20 minutes to allow equilibration, and the stimulus trains repeated. […] The average responses from the last five recorded action potentials from each stimulus train were analyzed for each test condition.
Electrophysiological recordings were performed with four nominal concentrations of 18-MC (0.3, 1, 3, and 10 μM) added sequentially to four preparations at two stimulus intervals (basic cycle lengths of 1 s and 0.5 s). The effects of 18-MC on action potential parameters were compared to time-matched vehicle control sequences.

[2] = Phase 1 first-in-human study, pharmacokinetics in plasma; conditions: for Cmax: Average; for percentage of the total drug related material: 4 mg twice at 0 and +10 hours
Protocol: Fourteen normal, healthy volunteers were enrolled in the study. Seven volunteers were treated in the first cohort (3 placebo, 4 received a single dose of 20 mg of 18-MC) and seven in the second cohort (2 placebo, 5 received 8 mg as 4 mg doses of 18-MC administered at 0 and plus 10 hours). For Cohort A, volunteers were monitored in a hospital unit for 2 days (36 hours) days, and were followed up for safety at Days 3, 7 and 30. For Cohort B, volunteers were monitored in a hospital unit for 2 days (36 hours), and were followed up for safety at Days 3, 4, 7 and 30.
This study was designed as a randomized, double-blind, placebo-controlled, single-center Phase 1 first-in-human clinical trial. After screening, volunteers were admitted to the hospital for 36 hours. […] Study article was initiated on Day 1 and volunteers were discharged on Day 2. Cohort A were seen as outpatients on Days 3, 7 and 30. Cohort B were seen as outpatients on Days 3, 4, 7 and 30. 14 subjects were in the study, 5 male and 9 female.
For Cohort A, pharmacokinetic samples were obtained at baseline and at 0.5, 1.0, 2.0, 6.0, 12.0, 24, 36 hours, and 7 days post dose.
Samples underwent two analyses: A research assay (LG/MS/TOF) developed by MicroConstants, Inc., was used to collect the raw data. The first analysis was to quantitate 18-MG and the known metabolites M2, M4 and M5 (using standard curves included in the run). The second analysis compared the peak heights of 18-MG and all the metabolites that could be identified in terms of relative peak height (M1 through M10, and P1-P3).

[3] = target: T1, rat α3β4 nicotinic acetylcholine receptor (nAChR) (Rattus norvegicus, UniProt P04757+P12392); assay: cell-based; conditions: for Persistent Inhibition at 1 sec: 1 second after removal of drug; for koff: HEK293
T1 construct: expressed in transfected cells; host or cells: HEK 293 (ATCC CRL1573), transient, Lipofectamine 2000

[4] = tested on: mouse liver; assay: In vivo comet assay; conditions: positive control
Protocol: The comet assay (alkaline single cell gel electrophoresis) is a microgel electrophoretic technique that detects DNA damage in individual cells. DNA damage can be expressed as DNA single strand breaks, double strand breaks, and strand breaks induced by alkali labile sites. […] For this study, the liver was selected as the tissue for evaluation, since this tissue is expected to contain high concentrations of parent drug and metabolites following oral administration.
Male mice were administered oral doses of 0 (vehicle=5% dextrose), 50, 90 and 120 mg/kg/day by gavage according to the table below. Animals in groups 1-4 were dosed on three consecutive days and euthanized 3 to 4 hours after the last dose by CO2 inhalation. A separate group of animals were dosed with methyl methanesulfonate (MMS) which served as a positive control. Immediately following euthanasia, the liver was removed and collected from each animal.
In this study, comet tail migration, % tail DNA (also known as % tail intensity) and tail moment were determined for each animal/treatment group and served as parameters of DNA damage.

[5] = both, human, plasma, po, 4 mg, cohort B, 4 mg PO at 0 and +10 hours
[6] = both, human, plasma, po, 20 mg, cohort A, 20 mg PO single dose
[7] = cohort B, 4 mg PO at 0 and +10 hours

T1 sequence (P04757 26-499): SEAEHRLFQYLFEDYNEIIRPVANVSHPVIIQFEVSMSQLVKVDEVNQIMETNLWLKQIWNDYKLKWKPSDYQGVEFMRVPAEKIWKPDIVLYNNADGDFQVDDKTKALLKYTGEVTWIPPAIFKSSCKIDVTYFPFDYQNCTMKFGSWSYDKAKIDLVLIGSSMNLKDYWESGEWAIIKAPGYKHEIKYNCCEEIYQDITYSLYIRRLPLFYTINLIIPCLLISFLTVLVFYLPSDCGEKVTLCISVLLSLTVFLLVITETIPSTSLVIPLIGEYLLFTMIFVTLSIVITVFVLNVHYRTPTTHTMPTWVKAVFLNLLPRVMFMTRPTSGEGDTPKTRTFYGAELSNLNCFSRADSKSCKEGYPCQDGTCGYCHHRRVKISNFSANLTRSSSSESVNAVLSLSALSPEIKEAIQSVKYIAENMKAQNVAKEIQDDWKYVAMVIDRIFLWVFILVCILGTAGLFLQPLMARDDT
T1 sequence (P12392 21-495): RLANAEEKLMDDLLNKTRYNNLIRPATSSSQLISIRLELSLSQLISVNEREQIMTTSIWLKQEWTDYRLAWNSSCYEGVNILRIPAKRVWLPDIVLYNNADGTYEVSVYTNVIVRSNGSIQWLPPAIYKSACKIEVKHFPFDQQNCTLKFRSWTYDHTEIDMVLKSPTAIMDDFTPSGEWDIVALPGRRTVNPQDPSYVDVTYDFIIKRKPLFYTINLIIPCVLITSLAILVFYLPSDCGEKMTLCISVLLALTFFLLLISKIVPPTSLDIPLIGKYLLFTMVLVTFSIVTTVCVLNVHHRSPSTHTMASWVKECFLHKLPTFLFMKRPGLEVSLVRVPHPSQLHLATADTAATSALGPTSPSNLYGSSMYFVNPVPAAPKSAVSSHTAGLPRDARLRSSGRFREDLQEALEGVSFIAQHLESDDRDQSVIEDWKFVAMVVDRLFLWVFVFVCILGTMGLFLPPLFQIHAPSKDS

Row | Structure (SMILES) | AUC ([2]; both, human, plasma, po, 4 mg) [ng·h/mL] | AUC(0-inf) ([2]; both, human, plasma, po, 4 mg) [ng·h/mL] | Tmax ([2]; both, human, plasma, po, 4 mg) [h] | half-life ([2]; both, human, plasma, po, 4 mg) [h] | Cmax [2, 5] [ng/mL] | AUC ([2]; both, human, plasma, po, 20 mg) [ng·h/mL] | AUC(0-inf) ([2]; both, human, plasma, po, 20 mg) [ng·h/mL] | Tmax ([2]; both, human, plasma, po, 20 mg) [h] | half-life ([2]; both, human, plasma, po, 20 mg) [h] | Cmax [2, 6] [ng/mL] | AUCall, Max ([2]; cohort A, 20 mg PO single dose) [ng·h/mL] | AUCall, Min ([2]; cohort A, 20 mg PO single dose) [ng·h/mL] | Cmax, Max ([2]; cohort A, 20 mg PO single dose) [ng/mL] | Cmax, Min ([2]; cohort A, 20 mg PO single dose) [ng/mL] | Half-Life, Max ([2]; cohort A, 20 mg PO single dose) [h] | Half-Life, Min ([2]; cohort A, 20 mg PO single dose) [h] | Tmax, Max ([2]; cohort A, 20 mg PO single dose) [h] | Tmax, Min ([2]; cohort A, 20 mg PO single dose) [h] | AUCall, Max [2, 7] [ng·h/mL] | AUCall, Min [2, 7] [ng·h/mL] | also measured
1 | CC(C)NCC(O)c1ccc(NS(C)(=O)=O)cc1 (racemic) [dl-Sotalol, reference compound] | – | – | – | – | – | – | – | – | – | – | – | – | – | – | – | – | – | – | – | – | APD60 prolongation [1]: ~40%; APD90 prolongation [1]: ~40%
2 | COC(=O)C12CC3CC(CCO)C1N(C=Cc1c2[nH]c2ccccc12)C3 (stereo not drawn) [M2, methyl7-(2-hydroxyethyl)-7,8,9,10-tetrahydro-5H-6,9-methanopyrido[1′,2′:1,2]azepino[4,5-b]indole-6(6aH)-carboxylate] | 391 | 420 | 11.8 | 44.1 | 11 | 563 | 678 | 1.4 | 14.4 | 41 | 684 | 504 | 62 | 27 | 19.0 | 11.1 | 2.0 | 0.5 | 500 | 287 | Cmax, Max [2, 7]: 12 ng/mL; Cmax, Min [2, 7]: 8 ng/mL; Half-Life, Max [2, 7]: 97.8 h; Half-Life, Min [2, 7]: 18.7 h; Tmax, Max [2, 7]: 12 h; Tmax, Min [2, 7]: 11 h
3 | COCCC1CC2CN3C=Cc4c([nH]c5ccccc45)C(C(=O)OC)(C2)C13 (stereo not drawn) [M4, methyl7-(2-methoxyethyl)-7,8,9,10-tetrahydro-5H-6,9-methanopyrido[1′,2′:1,2]azepino[4,5-b]indole-6(6aH)-carboxylate] | 1650 | 1650 | 7.3 | 22.1 | 72 | 2690 | 2800 | 1.4 | 7.9 | 347 | 3925 | 1897 | 528 | 242 | 9.3 | 6.3 | 2.0 | 0.5 | 1941 | 1304 | percentage of the total drug related material [2]: about 40%; Tmax ([2]; cohort A or B, generally): ½; Cmax, Average [2, 7]: 72.3 ng/mL; Cmax, Max [2, 7]: 82 ng/mL; Cmax, Min [2, 7]: 65 ng/mL; Half-Life, Max [2, 7]: 34.3 h; Half-Life, Min [2, 7]: 13.2 h; Tmax, Max [2, 7]: 12 h; Tmax, Min [2, 7]: 0.5 h; pIC50 [3]: 5.59; Ipeak [3]: 23 ± 2% of ACh and 42 ± 3% of ACh; Max Inhibition 20-30 μM [3]: 88 ± 3%; fold less potent than the parent 18-MC HCl [3]: approximately 3.5 fold; kon [3]: 4.5 and 4.5 ± 0.4 s−1; reduction of peak ACh-evoked currents [3]: 68±2% and 86±2%; Ipeak ([3]; 30 μM): 14 ± 2% of ACh; Iss ([3]; 30 μM): 40 ± 6% of peak; τdecay ([3]; 30 μM): 205 ± 40 ms; Persistent Inhibition at 1 sec [3]: 21±3%; koff [3]: 2.5 s⁻¹
4 | COC(=O)C12CC3CC(CC(=O)O)C1N(CCc1c2[nH]c2ccccc12)C3 (stereo not drawn) [M5, 2-(6-(methoxycarbonyl)-6,6a,7,8,9,10,12,13-octahydro-5H-6,9-methanopyrido[1′,2′:1,2]azepino[4,5-b]indol-7-yl)acetic acid] | 163 | 185 | 2.9 | 46.8 | 6 | 210 | 395 | 0.8 | 29.6 | 25 | 359 | 105 | 38 | 12 | 43.4 | 16.2 | 1.0 | 0.5 | 208 | 104 | Tmax ([2]; cohort A or B, generally): ½; Cmax, Max [2, 7]: 9 ng/mL; Cmax, Min [2, 7]: 3 ng/mL; Half-Life, Max [2, 7]: 74.7 h; Half-Life, Min [2, 7]: 19.8 h; Tmax, Max [2, 7]: 11 h; Tmax, Min [2, 7]: 0.5 h; pIC50 [3]: 4.24; Ipeak [3]: 70 ± 4% of ACh; Iss [3]: 62 ± 4% of peak; Max Inhibition 20-30 μM [3]: 36 ± 5 %; fold less potent than the parent 18-MC HCl [3]: ~76 fold; kon [3]: 2.2 and 2.2 ± 0.4 s−1; τdecay [3]: 554 ± 32 ms; Persistent Inhibition at 1 sec [3]: 2±2%; koff [3]: 6.2 s⁻¹
5 | COCCC1CC2CN3C=Cc4c([nH]c5ccc(O)cc45)C(C(=O)OC)(C2)C13 (stereo not drawn) [M8, methyl 2-hydroxy-7-(2-methoxyethyl)-7,8,9,10-tetrahydro-5H-6,9-methanopyrido[1′,2′:1,2]azepino[4,5-b]indole-6(6aH)-carboxylate] | – | – | – | – | – | – | – | – | – | – | – | – | – | – | – | – | – | – | – | – | percentage of the total drug related material [2]: less than 10%
6 | COS(C)(=O)=O [MMS, methyl methanesulfonate, reference compound] | – | – | – | – | – | – | – | – | – | – | – | – | – | – | – | – | – | – | – | – | comet parameters [4]: produced the expected increases
7 | COC(=O)C12CC3CC(CCO[C@@H]4O[C@H](C(=O)O)[C@@H](O)[C@H](O)[C@H]4O)C1N(C=Cc1c2[nH]c2ccccc12)C3 (stereo partly drawn) [P10, (2S,3S,4S,5R,6R)-3,4,5-trihydroxy-6-(2-(6-(methoxycarbonyl)-6,6a,7,8,9,10-hexahydro-5H-6,9-methanopyrido[1′,2′:1,2]azepino[4,5-b]indol-7-yl)ethoxy)tetrahydro-2H-pyran-2-carboxylic acid] | – | – | – | – | – | – | – | – | – | – | – | – | – | – | – | – | – | – | – | – | percentage of the total drug related material [2]: greater than 10%; Tmax ([2]; both, human, plasma, oral, 4 mg): 6 to 10 h
